From patent US20250127774A1, “COMPOUNDS FOR LABELLING NUCLEIC ACID AND USES THEREOF” (THE ROYAL INSTITUTION FOR THE ADVANCEMENT OF …, priority 2022, published 2025)
Structures can show the parent of a compound that is named as a salt. Where two headings read alike, the source gives them in different places.

Key:
[1] = Photophysical properties of AO-495-tet-py before and after reaction with 5-norbornene-2 methanol; type: physicochemical; settings: for φ: Rhodamine 6G standard; for λmax(Fluor.): excitation at 488 nm
Protocol: The absorbance and fluorescence intensity (excitation at 488 nm) of AO-495-TET-py in different solvents (water, PBS and acetonitrile) was measured in a quartz cuvette (light path 1 cm) using a SpectraMax M5 plate reader (Molecular Devices, Sunnyvale, CA, USA). For AO-495-tet-py, samples for photophysical characterization were prepared directly from stock solution (10 mM in DMSO) by gradient dilution. For reaction of AO-495-tet-py with 5-norbornene-2 methanol, 20 μL AO-495-tet-py stock solution (in DMSO) was mixed with 2 μL 5-norbornene-2 methanol (80× excess) in room temperature for 24 h to ensure full conversion. 3 μL of the reaction mixture was diluted in to the indicated solvent to make a […] solution for following photophysical characterization. Rhodamine 6G in ethanol was used as fluorescence standard (φ=0.94).

[2] = Photophysical measurements (quantum yield) of PINK and PINK-VdU-ox; type: physicochemical; settings: excitation 488 nm, Rhodamine 6G standard; PINK in aqueous and aprotic solvents, 6 depending on the solvent used
Protocol: PINK (4) undergoes a highly fluorogenic and regioselective IEDDA reaction with VdU (5) to give “PINK-VdU-ox” (6) as a single isomer in a 76% isolated yield after 7d at 60° C. (Scheme 1). The slow rate of this non-templated reaction (Kapp=0.01 M^−1 s^−1, FIG. 5) is due to the combination of an unstrained terminal alkene and unactivated tetrazine.^[49] Over the course of the reaction, a ˜100-fold increase in fluorescence was observed (FIG. 3, c). With a quantum yield (φF)<0.2%, PINK (4) is essentially non-fluorescent in both aqueous and aprotic solvents (FIG. 6).
Highly viscous solvents, including glycerol and polyethylene glycol (PEG 200) induced higher fluorescence of 6, likely by restricting bond rotation and thus suppressing formation of a non-emissive, twisted intramolecular charge transfer (TICT) state.^[50]
Photophysical Measurements. Stock solutions (1-10 mM) of investigated compounds were prepared in DMSO and stored at −20° C. DMSO concentrations were less than 1% after dilution into the respective solvent/aqueous buffer. Measurements were collected on a SpectraMax M5 plate reader (Molecular Devices, Sunnyvale, CA, USA) in 1 cm path-length quartz cuvettes. Quantum yields were obtained by excitation at 488 nm using Rhodamine 6G ((=0.94) in EtOH (n=1.3624) as a fluorescent standard.^[1] Quantum yields were calculated using the equation I: […]

Hela cells = test: Pulse-chase labeling with EdU; type: cell-based; settings: 20 μM VdU 16 h, 1 μM PINK 4 h, 10 μM EdU 4 h
Protocol: To investigate the potential impact of VdU-PINK labeling on subsequent DNA synthesis, a pulse-chase experiment was performed with 5-ethynyl-2′-deoxyuridine (EdU) (FIG. 14, a). Hela cells were grown in cell media containing 20 μM VdU for 16 h, aspirated, treated with 1 μM PINK for 4 h, aspirated and treated with 10 μM EdU for 4 h. After fixation and DNA denaturation, cells were stained with AF488-azide (488 nm laser; emission 495-540 nm), and total cellular DNA was counterstained with Hoechst 33342 (405 nm laser; emission 410-480 nm). The “No VdU” cells were incubated with 1 μM PINK but not VdU. PINK+ and EdU+ “double positive” cells were observed as having co-localized nuclear staining. […] Therefore, VdU and PINK were used to track DNA synthesis and cellular division using live-cell, time-lapsed imaging. For optimal live-cell visualization, cells were incubated with 100 µM VdU for 23 h and subsequently labeled with 1 μM PINK for 4 h prior to imaging, allowing for the recording of full mitotic cycles over 2.5 hours (FIG. 14, b). Live cell images were acquired using a confocal microscope equipped with a stage-top incubator at 37° C. and at 5% CO2.
Pulse-Chase Labeling. In each well of a 24-well plate, one 10 mm diameter cover slide was placed. Hela cells were seeded at 1.2×10^5 cells per mL and allowed to settle overnight (22 h). […]

MV4-11 cells [3] = test: Resazurin single toxicity assay; type: cell-based; settings: Homo sapiens, compound alone
Protocol: (§1) Resazurin assays were carried out to test the effectiveness of VdU, VdA and PINK alone in MV4-11 and Jurkat. The resazurin reduction assay is a colorimetric assay which allows to determine a cell's viability based on its metabolic activities.^26 When the cells are alive, the resazurin gets reduced by NADH into its resorufin form by cellular respiration, which is pink and highly fluorescent.^26 When the cells are dead or their metabolisms are impaired, the resazurin remains in its oxidized form, which is blue and has low fluorescence.^26 The cells can then be imaged using a spectrometer to determine how viable they are after each treatment.
(§2) Resazurin Single toxicity assay. MV4-11 and Jurkat cells were seeded in 96-well plates at a density of 20 000 cells/well, in triplicates. The cells were treated with each nucleoside (VdU/VdA) alone diluted in fresh media in 1:4 serial dilutions (˜0.01% DMSO) at concentrations of 1000-0 μM. The cells were treated with PINK alone diluted in fresh media in 1:2 serial dilutions (˜1% DMSO) at concentration of 100-0 μM. The cells were then incubated for 24 h and 72h. 10 μL of 870 μM resazurin was added per well, and incubated for 2-5 hours. After incubation, the fluorescence intensity at 590 nm (excitation=560 nm) was measured using a SpectraMax M5 plate reader.

Jurkat cells [4] = test: Resazurin single toxicity assay; type: cell-based; settings: Homo sapiens, compound alone
Protocol: as §1, §2

MOLM-13 cells [5] = test: Resazurin combination toxicity assay; type: cell-based, human; settings: variable VdU/VdA alone or with 1 μM PINK added 24 h post nucleoside addition, read-out: IC50 value (48 h) for sequential addition
Protocol: (§3) From the single toxicity experiment, it was determined that the optimal subtoxic concentration of PINK to be used for the combination toxicity assays would be 1 μM. To test how effective the vinyl-nucleosides (VdU/VdA) in combination with PINK are at killing the cells compared to the vinyl-nucleosides alone, another resazurin reduction assay was carried out.
(§4) Resazurin Combination toxicity assays. MV4-11, MOLM-13 and Jurkat cells were seeded in 96-well plates at a density of 20 000 cells/well, 25 000 cells/well and 30 000 cells/well, respectively, in triplicates. For the sequential addition, the cells were first treated with the nucleosides (VdU/VdA) diluted in fresh media in 1:4 serial dilutions (˜0.01% DMSO) at concentrations of 500-0 μM, and incubated overnight. 24h post nucleoside addition, the cells were treated with 1 μM PINK diluted in fresh media (˜1% DMSO), and incubated for 24-72h. The cells were treated with resazurin, incubated and measured, as described above. For the simultaneous addition, the cells were treated with nucleosides and PINK on the same day at the same concentrations as describes above, and incubated for 24-72h.

MV4-11 and Jurkat = test: Resazurin single toxicity assay, summary over both cell lines; type: cell-based; settings: Homo sapiens, after 24 h and 72h, read-out: IC50 summarised over both cell lines
Protocol: as §1
Overall, VdU presented itself as a good candidate for the combination therapy with PINK due to its low toxicity in the two leukemia cell lines.
as §2

MOLM-13 cells [6] = test: Cell counting assay (Trypan Blue); type: cell-based, human; settings: MOLM-13, 5 μM nucleoside, 1 μM PINK
Protocol: To confirm the cytotoxicity results obtained from the resazurin assays, a cell counting assay was conducted using Trypan Blue. It is an azo dye allows to discriminate between viable cells and dead cells, since dead cells will take in the dye, while viable cells will remain white. 28 From the resazurin assays, and after some optimization based on cell sensitivity to the vinyl-nucleosides, it was determined that […] and 5 μM of vinyl-nucleosides alone and in combination with 1 μM of PINK were two interesting concentrations to explore in Jurkat, MV4-11, and MOLM-13 cells. Cells were incubated with 5 μM or 10 μM of each nucleoside overnight (Day 0), and 1 μM of PINK was added for the combinations and PINK alone 24h post nucleoside incubation (Day 1). The cells were counted every 24h.
Cell Counting Assay. Jurkat, MV4-11 and MOLM-13 cells were seeded in 12-well plates at a density of 500 000 cells/mL, 175 000 cells/mL and 375 000 cells/mL, respectively, in duplicates. The cells were incubated overnight in fresh media containing 10 μM (Jurkat) or 5 μM (MV4-11 and MOLM-13) of each nucleoside (˜0.01% DMSO). 24h post nucleoside addition, 1 μM of PINK (˜0.01% DMSO) were added to the respective wells and incubated for 24 h. The cells were counted using a cell counter (BIO RAD TC20) to determine the percentage of viable cells and the cell concentration. The cells were counted every 24h using Trypan Blue in a 1:1 ratio.

MV4-11 cells [7] = test: Resazurin combination toxicity assay; type: cell-based; settings: Homo sapiens
Protocol: as §3
(§5) To determine if it is possible to treat the leukemia cells with the vinyl-nucleosides and PINK simultaneously, instead of adding them sequentially, another resazurin reduction assay using the same concentrations of each compound as in the previous combination experiment was carried out, where instead the vinyl-nucleosides and PINK were added on the same day instead of on two consecutive days.
as §4

Jurkat cells [8] = test: Resazurin combination toxicity assay; type: cell-based; settings: Homo sapiens
Protocol: as §3, §5, §4

[9] = 48 h, variable VdU/VdA alone or with 1 μM PINK added on the same day, read-out: IC50 value (48 h) for simultaneous addition
[10] = variable VdU/VdA alone or with 1 μM PINK added 24 h post nucleoside addition, read-out: IC50 value (48 h) for sequential addition

CN(C)c1ccc2cc3ccc(N(C)C)cc3[n+](CCCc3nnc(-c4ccccn4)nn3)c2c1 [AO-495-tet-py, (10-(6-(pyridin-2-yl)-1,2,4,5-tetrazin-3-yl)propyl)-3,6-bis(dimethylamino)acridinium trifluoroacetate)]
λmax(Abs) ([1]; MeCN): 498 nm | φ ([1]; MeCN): 0.0075 | λmax(Fluor.) ([1]; MeCN): 525 nm | λmax(Abs) ([1]; PBS): 500 nm | φ ([1]; PBS): 0.0148 | λmax(Fluor.) ([1]; PBS): 525 nm | λmax(Abs) ([1]; Water): 500 nm | φ ([1]; Water): 0.0063 | λmax(Fluor.) ([1]; Water): 525 nm

Cc1cc(-c2cn([C@H]3C[C@H](O)[C@@H](CO)O3)c(=O)[nH]c2=O)c(-c2ccc3cc4ccc(N(C)C)cc4nc3c2)nn1 [PINK-VdU-ox]
quantum yield (φF) [2]: 3.5-19% | impact of VdU-PINK labeling on subsequent DNA synthesis / cell cycle (Hela cells): did not cause cell cycle arrest

C=Cc1cn([C@H]2C[C@H](O)[C@@H](CO)O2)c2ncnc(N)c12 [VdA, 7-vinyl-7-deaza-2′-deoxyadenosine]
IC50 (MV4-11 cells [3]; MV4-11, 24 h incubation, read-out: IC50 value (24 h)): 32 µM | IC50 (MV4-11 cells [3]; MV4-11, 72 h incubation, read-out: IC50 value (72 h)): 58 µM | IC50 (Jurkat cells [4]; 24 h incubation, read-out: IC50 value (24 h)): 68 µM | IC50 (Jurkat cells [4]; 72 h incubation, read-out: IC50 value (72 h)): 46 µM | IC50 (MOLM-13 cells [5]; Homo sapiens, MOLM-13, MOLM-13): 3 µM | IC50 (MOLM-13 cells [5]; MOLM-13): 2.6 µM | IC50 (MV4-11 and Jurkat): ~50 µM | cell concentration (cell growth) (MOLM-13 cells [6]): seem to inhibit cell growth | IC50 (MV4-11 cells [7]; [9]): 37 µM | IC50 (MV4-11 cells [7]; [10]): 25 µM | IC50 (Jurkat cells [8]; [9]): 72 µM | IC50 (Jurkat cells [8]; [10]): 46 µM
